The test system of one assay is primary neurons. The assay is described as follows: Intracellular calcium mobilization (excitability) assay. Type of assay: cell-based, mouse. As to conditions: CI inhibition. The procedure:
Neuronal functionality was measured by the Rhod-4 No Wash Calcium Assay Kit (Abcam, Cat No. ab112157), following the manufacturer's instructions for intracellular calcium assay. In short, culture medium was removed, and Rhod-4 dye containing buffer was gently added to cells, followed by incubation at 37 degrees for 30 min followed by 20 min at room temperature. For imaging and quantification of intracellular calcium mobilization, confocal images were acquired using a Zeiss LSM800 confocal microscope (Jena, Alemania) enabled with a 10X objective. Time lapse images of the confocal scan were acquired every 0.5 second over a ten-minute period. Neuronal cultures were treated with 100mM KCl (final concentration) added after the first 4 minutes to establish a baseline and observe the steady- state changes in calcium mobilization in response to the treatment. Acquired confocal images were post-processed using the free and open-source Fiji image processing software. Fluorescent intensity changes were quantified using fixed parameters across the entire set of captured images.

A further assay deals with astrocytes. The assay can be described thus: ATP measurement in astrocytes (ATP Assay Kit). Type of assay: cell-based, mouse. The settings on record: 100 nM, 24 h. As to the method: Primary cultures of C57BL/6 mouse cortical astrocytes were derived from postnatal day 2-3 pups. They were plated on pre-treated dishes coated with Poly-L-lysine (100 µg/ml) and cultured in DMEM/F-12 (ThermoFisher) supplemented with 15% FBS and 1% penicillin/streptomycin (P/S). After 24 hours of plating, the medium was switched to 10% FBS.
(§1) ATP Assay Kit (Abcam, #ab83355) was used to analyze ATP levels. Briefly, Cells were seeded in M24 plates (neurons at 500,000 cells/mL and monolayer density for astrocytes), and for the ATP experiments, three wells per condition were combined. An alternative deproteinization protocol was applied to purify the samples, and a Colorimetric Assay was conducted as outlined in the original protocol. The measurements were obtained using the CLARIOstar Plus plate reader from BMG LABTECH.

For assay [1], the system named is mouse cortical neurons. The assay can be described thus: ATP measurement in neurons (ATP Assay Kit). Type of assay: cell-based. The settings on record: CI-inhibited neurons, 100 nM, 24 h. As to the method: (§2) Primary cultures of C57BL/6 mouse cortical neurons were prepared from embryos between embryonic days 16.5 and 17.5 and seeded onto pre-treated plates coated with Poly-L-lysine hydrobromide (500 µg/ml). We used Neurobasal medium without D-glucose and sodium pyruvate (ThermoFisher) to modulate D-glucose levels, depending on the experiment (2.5 mM, 5 mM, or 25 mM).
In standard experiments, we utilized Neurobasal medium with 25 mM D-glucose, 1 mM sodium pyruvate (ThermoFisher), B27 plus supplement (GIBCO), GlutaMax I 100X (GIBCO), and 1% penicillin/streptomycin (P/S). Starting from day 6 in vitro (DIV6), half of the medium was replaced every 3-4 days, omitting GlutaMax I.
as §1

Another assay deals with 143B cells. The assay can be described thus: Lactate release in 143B cells (proxy of glycolysis). Type of assay: cell-based. The settings on record: 24 h. As to the method: (§3) Increased lactate secretion is considered a good indicator of enhanced glycolytic rates, which is a common feature of ETC-inhibited cells as they switch from OXPHOS to glycolysis to maintain ATP levels. […] We culture 143B cells in the presence of Piericidin for 24 h and PPP activity and lactate release, as a proxy of glycolysis, were measured. As expected, lactate detection in the media was higher in CI-inhibited cells. […] Next, we wonder if in this context, glucose can be overused by glycolysis and therefore diverted away from the PPP. Diseases associated with impaired mitochondrial function negatively impact high energy demanding tissues such as the brain. As such, neurons that are highly sensitive to ETC inhibition also rely strongly on glucose metabolism. Thus, we used mouse cortical neurons to determine the rates of glycolysis and PPP as glucose levels become limiting. Control and Piericidin treated neurons where cultured in media containing supraphysiological (25 mM), physiological (5 mM) or subphysiological concentrations of glucose (2,5 mM). […] Decreased PPP activity under low glucose (2,5 mM) correlated with a rapid decline in NADPH/NADP+ levels in CI-inhibited cells. Conversely, glucose availability had no effect on ATP levels at this timepoint.

The test system of assay [2] is mouse cortical neurons. The assay can be described thus: L-lactate release in neurons (Lactate-Glo). The format is cell-based. The procedure: as §2
L-lactate levels were measured in mouse cortical neurons using Lactate-Glo™ Assay (Promega, #J5021) following the original protocol.
as §3

As to `CC=C(C)C(O)C(C)C=C(C)C=CCC(C)=CCc1nc(OC)c(OC)c(O)c1C` (stereo not shown) [Piericidin, Piericidin A], in the assay on primary neurons, the excitability response entry is on record as “diminished”. Besides, the ATP levels entry is “did not cause any alteration” with astrocytes and “maintained” in the assay with mouse cortical neurons [1]. Further, the “lactate detection in the media” value with 143B cells is reported as “higher”. In addition, the lactate secretion result in the assay with mouse cortical neurons [2] (5 mM glucose, trend, did not reach statistical significance) is “increased lactated secretion”. For the same compound, in the assay on mouse cortical neurons [2] (limited glucose availability (2,5 mM), 100 nM, 16 h), the levels of lactate entry is reported as “preserving”. Moreover, the lactate result in the assay on mouse cortical neurons [2] (neurons cultured in 25 mM glucose, 100 nM, 16 h) is “significantly upregulation”.

(Values after patent EP4653001A1, “TREATMENT, DIAGNOSIS AND/OR PROGNOSIS OF MITOCHONDRIAL DISEASES” (Universidad Autónoma de Madrid, priority 2024, dated 2025).)
